# In patent US4317768A, “Dihydropyridine derivatives as stabilizers for vinyl chloride polymers” (priority 1977, dated 1982):
# Several values for one entry are separate records, joined by “and”; a condition that tells them apart may be missing. Identical values can stand only once.
# Key:
# [1] = Static thermostability (GARDNER method), rigid PVC sheets, 210° C., 0.3 part stabilizer; conditions: 0 min
# Outline: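 Rigid sheets calendered at 160° C. from powdered PVC resin with 0.3 part by weight stabilizer (dihydropyridine or 2-phenyl-indole reference) plus usual ingredients. Sheets heated in oven at 210° C., removed every three minutes over 21 minutes until incipient carbonization. Coloration scored against GARDNER scale reference figures.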
# [2] = Static thermostability (GARDNER method), rigid PVC sheets, 185° C., 0.3 part stabilizer
# Outline: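 Rigid PVC sheets, calendered at 160° C with 0.3 part stabilizer and usual additives, were heated at 185° C. Samples came out every 6 min to 24 min, then every 3 min up to 42 min or carbonization, and colour was scored on the GARDNER scale.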
# [3] = Static thermostability (GARDNER method), rigid PVC sheets, 185° C., equimolecular quantities; conditions: 1.55×10^-3 mol
# Procedure: This study was carried out according to the GARDNER method, described in British Pat. No. 1,489,685.
# The reference substance was 2-phenyl-indole, a well-known and widely used stabilizer.
# The stabilizer (dihydropyridine or 2-phenyl-indole) and the other usual ingredients were mixed with powdered vinyl resins and the mixtures were calendered at a temperature of 160° C. to give rigid sheets.
# The sheets were then heated in a thermostated oven (185° C. or 210° C.) for different intervals of time until incipient carbonization.
# The coloration of the samples was compared to a standard scale of coloration, known as the GARDNER scale and was expressed in terms of the reference figures of the GARDNER scale.
# This study was carried out with the following resin:
# Polyvinyl chloride resin
# SL 2016 is a solution of zinc-2-ethyl-hexanoate in a mixture of hydrocarbons boiling between 158° C. and 184° C.
# Finally, a trail was performed at 185° C., with resins containing equimolecular quantities of the dihydropyridines or of 2-phenyl-indole, namely 1.55×10^-3 mol. In this case too, the samples were removed from the oven every 6 minutes over a period of 24 minutes and then every 3 minutes until the 42nd minute (or until carbonization).
# [4] = Colour of the resin after each passage in a blower-extruder
# Procedure: (2) Examination of the colour of the resin after each passage (3 in all) in a blower-extruder, the mould being a 250 ml cylindrical flask.
# Four resins where tested, the first containing 0.2% of 2-phenyl-indole and the others 0.2%, 0.03% and 0.015% of compound 1 respectively.
# [5] = Comparison with 2-phenyl-indole, vinyl chloride-vinyl acetate co-polymer, 185° C.; conditions: 0.3 part
# Procedure: (c) Comparison with 2-phenyl-indole
# A comparative test was made using the following compound:
# The sheets were heated in a ventilated oven at 185° C. and the following results were obtained: […]
# [6] = Comparison with 2-phenyl-indole, vinyl chloride-vinylidene chloride co-polymer, 210° C.; conditions: 0.3 part
# Procedure: A second test was made using the following compound:
# The sheets were heated in a ventilated oven at 210° C. and the following results were obtained: […]
# [7] = Photostabilizing power, PVC plates exposed to the sun, GARDNER scale; conditions: exposure to sun 6h
# Procedure: The photostabilizing power of the compounds of the invention was studied by exposing to the sun polyvinyl chloride plates which had been stabilized either by a dihydropyridine of the invention or by 2-phenyl-indole, or again by 2-(3'-methoxy-4'-hydroxy)-indole. This last product is an extremely valuable thermostabilizer for thermoplastic resins and is described in British Pat. No. 1,489,685.
# The resin given hereunder was prepared by mixing on cylinders at 160° C.:
# The plates of stabilized polyvinyl chloride, together with a plate which had not been stabilized, were stood in the sun under the same conditions and at the same time. Their colour was measured after 6 hours and 12 hours of exposure.
# The coloration of the plates was determined according to two methods:
# On the plates themselves, following the GARDNER scale, as in the section on thermostability,
# The sign + means that the coloration lies between the lower unit and the upper half-unit. Thus, 3+ means that the coloration lies between 3 and 3.5. Similarly, the sign - means that the coloration lies between the lower half-unit and the upper unit.
# [8] = Photostabilizing power, sheets exposed to the sun, co-polymer (a)
# Procedure: (§1) The sheets were exposed to the sun and their colorations were also determined according to the GARDNER method.
# [9] = Photostabilizing power, sheets exposed to the sun, rigid co-polymer (b)
# Procedure: as §1
structure (smiles),measurement,setting,value
"c1ccc(-c2cc3ccccc3[nH]2)cc1 [2-Phenyl-indole, 2-phenyl-indole, reference compound]","coloration, GARDNER scale",[1],1
same,"coloration, GARDNER scale",[2]; 0 min,1
same,"coloration, GARDNER scale",[2]; 6 min,1
same,"coloration, GARDNER scale",[2]; 12 min,3 and 4 and 5
same,"coloration, GARDNER scale",[2]; 24 min,13 and 11
same,"coloration, GARDNER scale",[2]; 27 min,14 and 13
same,"coloration, GARDNER scale",[2]; 30 min,15 and 14
same,"coloration, GARDNER scale",[2]; 33 min,15 and 14
same,"coloration, GARDNER scale",[2]; 36 min,16 and 14 and 15
same,"coloration, GARDNER scale",[2]; 39 min,16 and 15
same,"coloration, GARDNER scale",[3]; 0 min,1
same,"coloration, GARDNER scale",[3]; 6 min,2
same,"coloration, GARDNER scale",[3]; 12 min,3
same,"coloration, GARDNER scale",[3]; 18 min,10
same,"coloration, GARDNER scale",[3]; 24 min,13
same,"coloration, GARDNER scale",[3]; 27 min,14
same,"coloration, GARDNER scale",[3]; 30 min,14
same,"coloration, GARDNER scale",[3]; 33 min,14
same,"coloration, GARDNER scale",[3]; 36 min,16
same,"coloration, GARDNER scale",[3]; 39 min,16
same,"coloration, GARDNER scale",[3]; 42 min,Burnt
same,colour of the flask,[4]; after the second passage,blue color tending towards green
same,colour of the flask,[4]; after the third passage,greenish-blue
same,"coloration, GARDNER scale",[5]; 0 min,1
same,"coloration, GARDNER scale",[5]; 2 min,1
same,"coloration, GARDNER scale",[5]; 4 min,2
same,"coloration, GARDNER scale",[5]; 6 min,3
same,"coloration, GARDNER scale",[5]; 8 min,8
same,"coloration, GARDNER scale",[5]; 10 min,12
same,"coloration, GARDNER scale",[5]; 12 min,14
same,"coloration, GARDNER scale",[5]; 14 min,17
same,"coloration, GARDNER scale",[6]; 0 min,2 and 1
same,"coloration, GARDNER scale",[6]; 3 min,2 and 1
same,"coloration, GARDNER scale",[6]; 6 min,5 and 4
same,"coloration, GARDNER scale",[6]; 9 min,8.5 and 10
same,"coloration, GARDNER scale",[6]; 12 min,14 and 15
same,"coloration, GARDNER scale",[6]; 15 min,16
same,Coloration of the plates GARDNER,[7],3
same,Colour in GARDNER degrees,[8]; After 24 hours,6 GARDNER degrees and 8 GARDNER degrees
same,Colour in GARDNER degrees,[8]; Time 0,1 GARDNER degrees
same,Colour in GARDNER degrees,[9]; After 24 hours,17 GARDNER degrees and 13 GARDNER degrees
same,Colour in GARDNER degrees,[9]; Time 0,1.5 GARDNER degrees and 1 GARDNER degrees
